Measured values as given in publication PMC8160438, “A Novel Heptapeptide, GPPGPAG Transfers to the Brain, and Ameliorates Memory Dysfunction and Dendritic Atrophy in Alzheimer’s Disease Model Mice” (Frontiers in Pharmacology, 2021).
No end group written: not given here.

Experiments:
[1] = Plasma level after oral administration, LC-MS; type: in vivo; conditions: 500 mg/animal, ddY mice, female, 8 weeks, 500 mg/mouse p.o. single dose, sampled at 10, 60, 180 min, n = 3, read-out: time of peak in the plasma (converted)
Method: Bioavailability and brain penetration of GPPGPAG was performed as previously described ([Yang et al., 2017]). GPPGPAG (500 mg) was dissolved in 750 μL of physiological saline. GPPGPAG or vehicle solution (physiological saline) was orally administered using an oral gavage to female ddY mice (8 weeks-old). The mice were euthanized at 10, 60, and 180 min after administration. Blood was collected and centrifuged at 10,000 g and 4°C for 10 min to yield plasma. Plasma aliquots (200 μL) were extracted with methanol, dried, sonicated, and resolubilized in 50% methanol (100 μL). The cerebral cortex was also collected after complete saline perfusion for removing blood. […]
FIGURE 6 Brain penetration of GPPGPAG after oral administration in mice GPPGPAG (500 mg/mouse, p. o.) or vehicle solution (physiological saline) was administered to mice (ddY, females, 8 weeks old, n = 3) as a single dose. […] (A) Total ion chromatogram (upper) and extracted ion current chromatogram (lower) of standard GPPGPAG (m/z = 552.2753) at 10 μg/ml for quantification of (B) and (C) data. […] In total ion chromatogram (upper) and extracted ion current chromatogram (lower) of m/z = 552.2753, no peaks were detected. […] In total ion chromatogram and extracted ion current chromatogram of m/z = 552.2753, peaks matching the retention time of GPPGPAG were detected. […]

Stability in saline = type: physicochemical; conditions: 5 μg/ml, 37°C, 0, 10, 60, 180 min, LC-MS, n = 1
Method: For intraventricular administration, GPPGPAG was dissolved in artificial cerebrospinal fluid (ACSF; 130 mM NaCl, 24 mM NaHCO3, 3.5 mM KCl, 1.3 mM Na2HPO4, 2 mM CaCl2, 2 mM MgCl2 6H2O, and 10 mM glucose at pH 7.4) for use. GPPGPAG or ACSF was continuously injected for 28 days into the left ventricle (bregma: −0.2 mm, lateral: 1.0 mm, depth: −3.0 mm) using Alzet Osmotic Pump (1004, DURECT Corporation, CA, United States) and ALZET Brain Infusion Kit 3 (DURECT Corporation). Based on the amount of CSF produced which was 18 μL/h and the pump flow rate of 0.11 μL/h, the peptide in the pump was estimated to be diluted 164 times in the CSF to reach a final concentration 10 nM which was the effective dose in the cultured neuron experiments. Therefore 1.64 µM GPPGPAG was loaded into the pump. Stability of GPPGPAG in saline, mouse plasma and mouse cerebral cortex was confirmed by LC-MS quantification. GPPGPAG was mixed with saline or plasma at 5 μg/ml concentration. Otherwise, GPPGPAG was mixed with cortical lysate at 6.5 μg/g of cortex. After incubation at 37°C for 0, 10, 60, and 180 min, samples were dried up and served to LC-MS. Areas of MS peaks of GPPGPAG were quantified. […]
Stability of GPPGPAG in biological fluids.
(A) GPPGPAG was mixed with saline at 5 μg/ml concentration. (B) GPPGPAG was mixed with mouse plasma at 5 μg/ml concentration. […]

cortical neurons = assay: Entry into cultured cortical neurons, LC-MS of the lysate; type: in vitro ADME, mouse; conditions: 1 mg/dish, 1.0 x 10^7 cells/10-cm dish, 0, 10, 20, 30, 60, 180, 360 min
Method: Intracellular amount of GPPGPAG after addition to cultured cortical neurons.
Mouse cortical neurons were seeded at 1.0 x 10^7 cells/10-cm dish. After 3 – 4 days culture, 1 mg/dish GPPGPAG was added. Incubation time was 0, 10,20, 30, 60, 180 and 360 min. After complete washing by PBS, cell lysate was prepared by M-PER solution. The lysate was ultrasonicated with methanol for 60 sec, and centrifuged (12000g) for 10 min at 4℃. Supernatant was dried up and served for […]
(1 picture or pasted object on this page, not shown here)

GPPGPAG [GPPGPAG]
Tmax [1]: 10 min
stability, amount remaining (MS peak area) (Stability in saline): not declined during 180 min-incubation
entry into the neurons (intracellular amount) (cortical neurons): detected from 10 min after treatment and gradually increased up to 360 min afterward
